Experimental data reported in US8614239B2 (Novartis AG, priority 2009, dated 2013).

Legend:
[1] = system: BRAF (V599E)-MEK1-ERK2 cascade (MAP kinase pathway); assay: BRAF-MEK-ERK enzymatic cascade assay (TR-FRET); format: biochemical, human; conditions: compound at 10 μM, 45 min pre-incubation with enzymes, 100 μM ATP, 90 min reaction
Description: A BRAF-MEK-ERK cascade assay is used to evaluate the effects of these compounds as inhibitors of the MAP kinase pathway. An enzymatic cascade assay is set up using recombinant human activated BRAF (V599E) kinase (Cat No. 14-557), human full length unactive MEK1 kinase (Cat No. 14-706) and human full length unactive MAP Kinase 2/ERK2 (Cat No. 14-536) enzymes procured from Upstate. TR-FRET (Time resolved fluorescence resonance energy transfer) detection technology is used for the read out. The assay buffer solution contains 50 mM Tris pH 7.5, 10 mM MgCl2, 1 mM DTT, 0.01% Tween 20, 0.1 nM activated BRAF, 2 nM unactive MEK1, 10 nM unactive ERK2, 100 μM ATP and 500 nM long chain biotin-peptide substrate (LCB-FFKNIVTPRTPPP) in a 384 well format. The kinase reaction is stopped after 90 minutes with 10 mM EDTA and Lance detection mix (2 nM Eu-labeled phospho-serine/threonine antibody (Cat. No. AD0176-Perkin Elmer), 20 nM SA-APC (Cat No. CR130-100-Perkin Elmer) is added. The TR-FRET signal (Excitation at 340 nm, Emission at 615 nm and 665 nm) is read with […] on a Victor3 V fluorimeter. The data is calculated using the ratio of readings at 665 nm to 615 nm. The final concentration of DMSO is 2.5% in the assay. Compounds are screened at 10 μM concentration with pre-incubation of the enzymes in the presence of test compound for 45 minutes. […]
These assays described above are fully detailed in Han, Shulin, et. al., Bioorganic & Medicinal Chemistry Letters (2005) 15, 5467-5473, and in Yeh, et. al., Clin Cancer Res (2007) 13 (5), 1576-1583.
(§1) The compounds of the above Examples were evaluated as inhibitors of the MAP kinase pathway in a BRAF-MEK-ERK enzymatic cascade assay and in a cell viability assay, the results of which are collated in Table 1 below.

A375 cells = assay: Cell viability assay in A375 cells (XTT); format: cell-based; conditions: XTT read-out three days after compound addition
Procedure: The cell viability assay in A375 cells is set up in a 96-well plate format using XTT. XTT is a yellow tetrazolium salt that is cleaved to an orange formazan dye by the mitochondria of metabolically active cells. The procedure allows for rapid determination in a microtitre plate, to give reproducible and sensitive results.
A375 cells are grown in DMEM media containing 10% FBS and 1 mM sodium pyruvate. Cells are trypsinized and seeded at 1000 cells/well. After allowing the cells to adhere overnight, compound is added to the wells at the following final concentrations: 10, 3, 1, 0.3, 0.1, 0.03, 0.01, 0.001, and 0.0001 μM. The assay is set up in triplicates for each concentration. DMSO concentrations are kept at 0.5%/well. Three days after compound addition, the XTT assay is performed. Wells are washed once with PBS. 100 μL of DMEM media without phenol red or FBS is added to each well. A working solution of XTT containing 1 mg/ml XTT and 100 μL of PMS (stock concentration 0.383 mg/ml) per 5 ml is prepared. 50 μL of the working solution of XTT is added to each well. Absorbance of the plate is read at 465 nm using a Spectramax 190 (Molecular Devices). The absorbance from wells with media and XTT alone, but without cells is considered the blank and subtracted from readings from all wells.
Percentage viability is calculated considering the blank subtracted value from wells treated with DMSO alone as 100% viable. G150 values are calculated using Graphpad Prism, using non-linear regression curve fit for sigmoidal dose response (variable slope).
The cell viability assay is further described in Scudiero, et. al., Cancer Research (1988) 48, 4827-4833; Weislow, et. al., J. Natl. Cancer Institute, (1989) 81, 577-586; and Roehm, et. al., J. Immunol. Methods [1991] 142:257-265.
as §1

SMILES	% inhibition (10 μM) [1]	GI50 (A375 cells; Homo sapiens, A-375, 72 h)	GI50 (A375 cells; listed as 1J-isomer 1)	GI50 (A375 cells; listed as 1J-isomer 2)
CN(C)S(=O)(=O)Nc1c(Nc2ccc(I)cc2F)c(F)c(F)c2ncoc12 [Example 1C, Dimethylsulfamic acid [4,5-difluoro-6-(2-fluoro-4-iodo-phenylamino)-benzooxazol-7-yl]amide]	100%	646 nM	–	–
CN(C)S(=O)(=O)Nc1c(Nc2ccc(Br)cc2F)c(F)c(F)c2ncoc12 [Example 1F, Dimethylsulfamic acid [4,5-difluoro-6-(2-fluoro-4-bromo-phenylamino)-benzooxazol-7-yl]-amide]	99%	2370 nM	–	–
Cc1nc2c(F)c(F)c(Nc3ccc(I)cc3F)c(NS(=O)(=O)C3CC3)c2o1 [Example 1E, Cyclopropanesulfonic acid [4,5-difluoro-6-(2-fluoro-4-iodo-phenylamino)-2-methyl-benzooxazol-7-yl]amide]	93%	1000 nM	–	–
C=CCC1(S(=O)(=O)Nc2c(Nc3ccc(I)cc3F)c(F)c(F)c3ncoc23)CC1 [Example 1D, 1-Allyl-cyclopropanesulfonic acid [4,5-difluoro-6-(2-fluoro-4-iodo-phenylamino)-benzooxazol-7-yl]-amide]	100%	940 nM	–	–
O=S(=O)(Nc1c(Nc2ccc(I)cc2F)c(F)c(F)c2ncoc12)C1(CC(O)CO)CC1 (centres unmarked) [Example 1I, 1-(2,3-Dihydroxy-propyl)-cyclopropanesulfonic acid [4,5-difluoro-6-(2-fluoro-4-iodo-phenylamino)-benzooxazol-7-yl]-amide]	100%	47 nM	–	–
Cc1nc2c(F)c(F)c(Nc3ccc(Br)cc3F)c(NS(=O)(=O)C3CC3)c2o1 [Example 1H, Cyclopropanesulfonic acid [6-(4-bromo-2-fluoro-phenylamino)-4,5-difluoro-2-methyl-benzooxazol-7-yl]-amide]	10%	–	–	–
Cc1nc2c(F)c(F)c(Nc3ccc(I)cc3F)c(NS(=O)(=O)N(C)C)c2o1 [Example 1B, Dimethylsulfamic acid [4,5-difluoro-6-(2-fluoro-4-iodo-phenylamino)-2-methyl-benzooxazol-7-yl]-amide]	100%	2010 nM	–	–
O=S(=O)(Nc1c(Nc2ccc(Br)cc2F)c(F)c(F)c2ncoc12)C1CC1 [Example 1G]	92%	> 10000 nM	–	–

Other lines, results leading:

% inhibition (10 μM) [1]	GI50 (A375 cells; Homo sapiens, A-375, 72 h)	GI50 (A375 cells; listed as 1J-isomer 1)	GI50 (A375 cells; listed as 1J-isomer 2)	SMILES
99%	2700 nM	–	–	O=S(=O)(Nc1c(Nc2ccc(I)cc2F)c(F)c(F)c2ncoc12)C1CC1CO (centres unmarked) [Example 1L, N-(4,5-Difluoro-6-(2-fluoro-4-iodophenylamino)benzo[d]oxazol-7-yl)-2-(hydroxymethyl)cyclopropane-1-sulfonamide]
100%	17 nM	–	–	O=S(=O)(Nc1c(Nc2ccc(I)cc2F)c(F)c(F)c2ccoc12)C1(CC(O)CO)CC1 (centres unmarked) [Example 2B, 1-(2,3-Dihydroxy-propyl)-cyclopropanesulfonic acid [4,5-difluoro-6-(2-fluoro-4-iodo-phenylamino)-benzofuran-7-yl]amide]
99%	29 nM	–	–	O=S(=O)(Nc1c(Nc2ccc(I)cc2F)c(F)c(F)c2ccoc12)C1CC1 [Example 2A, Cyclopropane sulfonic acid [4,5-difluoro-6-(2-fluoro-4-iodo-phenylamino)-benzofuran-7-yl]amide]
100%	5700 nM	–	–	O=S(=O)(Nc1c(Nc2ccc(I)cc2F)c(F)c(F)c2ncoc12)C1CC1COCc1ccccc1 (centres unmarked) [Example 1K, 2-(Benzyloxymethyl)-N-(4,5-difluoro-6-(2-fluoro-4-iodophenylamino)benzo[d]oxazol-7-yl)cyclopropane-1-sulfonamide]
99%	–	96 nM	–	O=S(=O)(Nc1c(Nc2ccc(I)cc2F)c(F)c(F)c2ncoc12)C1(CC(O)CO)CC1 (single isomer, unassigned) [Example 1J-isomer 1, N-(4,5-Difluoro-6-(2-fluoro-4-iodophenylamino)benzo[d]oxazol-7-yl)-1-(2,3-dihydroxypropyl)cyclopropane-1-sulfonamide]
99%	119 nM	–	–	O=S(=O)(Nc1c(Nc2ccc(I)cc2F)c(F)c(F)c2ccoc12)C1CC1CO (centres unmarked) [Example 2D, 2-Hydroxymethyl-cyclopropanesulfonic acid [4,5-difluoro-6-(2-fluoro-4-iodo-phenylamino)-benzofuran-7-yl]-amide]
99%	–	–	46 nM	O=S(=O)(Nc1c(Nc2ccc(I)cc2F)c(F)c(F)c2ncoc12)C1(CC(O)CO)CC1 (single isomer, unassigned) [Example 1J-isomer 2, N-(4,5-Difluoro-6-(2-fluoro-4-iodophenylamino)benzo[d]oxazol-7-yl)-1-(2,3-dihydroxypropyl)cyclopropane-1-sulfonamide]
95%	3550 nM	–	–	O=S(=O)(Nc1c(Nc2ccc(I)cc2F)c(F)c(F)c2ncoc12)C1(COCc2ccccc2)CC1 [Example 1M, 1-(Benzyloxymethyl)-N-(4,5-difluoro-6-(2-fluoro-4-iodophenylamino)benzo[d]oxazol-7-yl)cyclopropane-1-sulfonamide]
100%	12 nM	–	–	O=S(=O)(Nc1c(Nc2ccc(I)cc2F)c(F)c(F)c2ccoc12)C1(CCO)CC1 [Example 2C, 1-(2-Hydroxy-ethyl)-cyclopropanesulfonic acid [4,5-difluoro-6-(2-fluoro-4-iodo-phenylamino)-benzofuran-7-yl]amide]
100%	186 nM	–	–	O=S(=O)(Nc1c(Nc2ccc(I)cc2F)c(F)c(F)c2ncoc12)C1(CO)CC1 [Example 1N, N-(4,5-Difluoro-6-(2-fluoro-4-iodophenylamino)benzo[d]oxazol-7-yl)-1-(hydroxymethyl)cyclopropane-1-sulfonamide]
